Active and inactive are the calls of the source.

Assay [1] in a line: cytotoxicity in KRAS-transformed pancreatic duct cells, primary screen, cell-based, fluorescence, HTS (AID 431). Type of assay: functional. Particulars: Homo sapiens.
Assay [2] in a line: cytotoxicity in HPDE-C7 cells, cell-based, fluorescence, HTS (AID 430). Type of assay: functional. To be noted: Homo sapiens.
The next assay concerns the target Cytochrome P450 2C19 (Homo sapiens, UniProt P33261). The assay can be described thus: Cytochrome panel assay with activity outcomes. Panel member name: p450-cyp2c19 Compounds with AC50 equal or less than 10 uM are considered active. To be noted: read-out: AC50. Type of assay: functional.
The target of assay [3] is T1, Tyrosine-protein phosphatase non-receptor type 7 (Homo sapiens, UniProt P35236).
T1 sequence (P35236 whole entry): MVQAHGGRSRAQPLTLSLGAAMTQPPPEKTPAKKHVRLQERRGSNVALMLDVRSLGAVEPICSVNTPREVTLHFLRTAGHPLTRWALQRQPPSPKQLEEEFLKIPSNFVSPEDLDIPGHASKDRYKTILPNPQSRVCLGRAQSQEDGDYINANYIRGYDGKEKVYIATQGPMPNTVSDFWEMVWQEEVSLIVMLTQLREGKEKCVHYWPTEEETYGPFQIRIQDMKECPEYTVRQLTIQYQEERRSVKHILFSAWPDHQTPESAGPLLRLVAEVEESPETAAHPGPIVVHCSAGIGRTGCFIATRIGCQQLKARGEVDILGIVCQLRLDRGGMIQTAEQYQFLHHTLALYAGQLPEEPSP
Nature of the assay: inhibitors of human HePTP phosphatase, […], biochemical, absorbance, leukemia target (AID 521). Type of assay: functional.

Assay [4] is described as follows: P. falciparum Dd2 growth inhibitors, dose response, SYBR Green, cherry-picked samples (AID 1159567). It is filed as functional, cell-based.
The next assay concerns the target Paired box protein Pax-8 (Homo sapiens, UniProt Q06710). Nature of the assay: inhibitors of PAX8-driven TPO luciferase reporter, dose response, RMG-I cells, cherry-pick (AID 687027).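 Note: luciferase reporter driven by Pax8 target thyroperoxidase promoter measured by SteadyGlo luminescence.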 It is filed as functional, cell-based. For orientation: A reporter such as luciferase makes a cellular process visible.
The nature of assay [5]: NIH:OVCAR-3 ovarian cancer cell cytotoxicity, dose response, PAX8 inhibitor project, plate reader, dry powder samples (AID 743044). It is filed as functional, cell-based.
Assay [6] in a line: HepG2 cell cytotoxicity, dose response, cytotoxicity control, cherry-picked samples (AID 1159577). Type of assay: functional, cell-based.
The next assay deals with T2, Caspase-6 (Homo sapiens, UniProt P55212).
T2 sequence (P55212 whole entry): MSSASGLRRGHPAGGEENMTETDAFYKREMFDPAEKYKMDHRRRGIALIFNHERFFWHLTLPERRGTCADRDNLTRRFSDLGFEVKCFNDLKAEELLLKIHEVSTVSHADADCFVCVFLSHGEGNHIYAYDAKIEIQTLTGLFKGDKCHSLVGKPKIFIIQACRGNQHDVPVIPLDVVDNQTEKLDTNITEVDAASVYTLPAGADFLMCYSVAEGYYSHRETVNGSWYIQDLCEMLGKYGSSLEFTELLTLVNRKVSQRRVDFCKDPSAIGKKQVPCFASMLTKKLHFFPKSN
The assay can be described thus: human caspase-6 inhibitors, dose response, biochemical, VEID-R110 fluorescence, cherry-pick (AID 720632).

Assay [7] deals with T3, Carboxy-terminal domain RNA polymerase II polypeptide A small phosphatase 1 (Homo sapiens, UniProt Q9GZU7).
T3 sequence (Q9GZU7 whole entry): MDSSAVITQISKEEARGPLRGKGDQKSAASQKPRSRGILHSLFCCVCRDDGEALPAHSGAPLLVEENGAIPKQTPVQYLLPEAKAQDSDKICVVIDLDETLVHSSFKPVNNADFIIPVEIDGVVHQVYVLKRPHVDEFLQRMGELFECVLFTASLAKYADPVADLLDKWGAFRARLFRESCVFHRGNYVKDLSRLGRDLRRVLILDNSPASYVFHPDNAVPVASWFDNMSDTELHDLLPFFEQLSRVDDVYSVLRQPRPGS
Nature of the assay: inhibitors of CTDSP1, concentration-response testing, biochemical assay, absorbance-based, actives from ultra-high-throughput screening (AID 540297). Type of assay: functional.

The nature of assay [8]: enhancers of respiration in Yfh1-depleted yeast, dose response, Friedreich's ataxia, plus single-dose screen (AID 1465).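 Note: yeast depleted of Yfh1p frataxin homolog grown on glycerol needing respiration; WST-1 tetrazolium dye reduction as measure of cellular dehydrogenase metabolic activity.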 It is filed as functional.
The target of another assay is Protein Wnt-3a (Mus musculus, UniProt P27467). The assay can be described thus: SAR analysis of small molecule antagonists of Gli-SUFU in a Wnt3a luminescent reporter assay. Type of assay: functional.
Protein Wnt-3a, sequence (P27467 whole entry): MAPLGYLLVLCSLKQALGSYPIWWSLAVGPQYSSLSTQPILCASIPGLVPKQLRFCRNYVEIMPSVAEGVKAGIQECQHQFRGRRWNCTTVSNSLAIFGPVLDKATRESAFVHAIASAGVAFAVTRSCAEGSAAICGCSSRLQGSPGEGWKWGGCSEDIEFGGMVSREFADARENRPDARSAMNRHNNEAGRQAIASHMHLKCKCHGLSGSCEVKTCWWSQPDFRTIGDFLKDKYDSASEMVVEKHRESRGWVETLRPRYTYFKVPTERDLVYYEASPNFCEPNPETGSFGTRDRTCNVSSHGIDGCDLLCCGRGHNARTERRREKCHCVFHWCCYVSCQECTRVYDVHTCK
A short description of assay [9]: M. tuberculosis H37Rv growth inhibitors, H37Rv strain (AID 1626). It is filed as functional.
For the next assay, the target named is T4, Protein RecA (Mycobacterium tuberculosis, UniProt P9WHJ3).
T4 sequence (P9WHJ3 whole entry): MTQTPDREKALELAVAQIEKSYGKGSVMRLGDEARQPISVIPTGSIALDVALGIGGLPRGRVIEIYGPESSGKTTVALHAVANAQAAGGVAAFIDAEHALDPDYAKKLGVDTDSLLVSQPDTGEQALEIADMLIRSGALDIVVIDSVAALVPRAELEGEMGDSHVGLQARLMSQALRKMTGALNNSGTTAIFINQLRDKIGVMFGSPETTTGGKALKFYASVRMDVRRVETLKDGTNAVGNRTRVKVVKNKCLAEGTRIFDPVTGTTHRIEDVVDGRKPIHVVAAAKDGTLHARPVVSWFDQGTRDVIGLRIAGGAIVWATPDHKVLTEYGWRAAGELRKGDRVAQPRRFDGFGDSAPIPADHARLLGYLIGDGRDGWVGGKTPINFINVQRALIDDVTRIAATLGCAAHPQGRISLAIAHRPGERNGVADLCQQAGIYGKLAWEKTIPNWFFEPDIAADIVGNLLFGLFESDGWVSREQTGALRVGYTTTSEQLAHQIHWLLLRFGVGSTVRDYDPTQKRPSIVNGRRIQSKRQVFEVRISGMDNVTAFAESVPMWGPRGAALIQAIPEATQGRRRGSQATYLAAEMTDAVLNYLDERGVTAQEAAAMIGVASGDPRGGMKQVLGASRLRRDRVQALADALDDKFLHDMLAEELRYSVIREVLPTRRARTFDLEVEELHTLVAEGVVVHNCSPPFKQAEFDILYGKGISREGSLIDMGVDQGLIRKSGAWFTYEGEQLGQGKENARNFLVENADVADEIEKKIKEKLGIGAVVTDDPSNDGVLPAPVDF
The assay can be described thus: Fluorescence Cell-Free Homogeneous Dose Retest to Identify Inhibitors of RecA-Intein Splicing Activity. [Related pubchem assays (depositor defined):AID2097, AID2223, AID489010, AID492950]. Type of assay: functional.

For assay [10], the target named is T5, Replicative DNA helicase DnaB (Mycobacterium tuberculosis, UniProt P9WMR3).
T5 sequence (P9WMR3 whole entry): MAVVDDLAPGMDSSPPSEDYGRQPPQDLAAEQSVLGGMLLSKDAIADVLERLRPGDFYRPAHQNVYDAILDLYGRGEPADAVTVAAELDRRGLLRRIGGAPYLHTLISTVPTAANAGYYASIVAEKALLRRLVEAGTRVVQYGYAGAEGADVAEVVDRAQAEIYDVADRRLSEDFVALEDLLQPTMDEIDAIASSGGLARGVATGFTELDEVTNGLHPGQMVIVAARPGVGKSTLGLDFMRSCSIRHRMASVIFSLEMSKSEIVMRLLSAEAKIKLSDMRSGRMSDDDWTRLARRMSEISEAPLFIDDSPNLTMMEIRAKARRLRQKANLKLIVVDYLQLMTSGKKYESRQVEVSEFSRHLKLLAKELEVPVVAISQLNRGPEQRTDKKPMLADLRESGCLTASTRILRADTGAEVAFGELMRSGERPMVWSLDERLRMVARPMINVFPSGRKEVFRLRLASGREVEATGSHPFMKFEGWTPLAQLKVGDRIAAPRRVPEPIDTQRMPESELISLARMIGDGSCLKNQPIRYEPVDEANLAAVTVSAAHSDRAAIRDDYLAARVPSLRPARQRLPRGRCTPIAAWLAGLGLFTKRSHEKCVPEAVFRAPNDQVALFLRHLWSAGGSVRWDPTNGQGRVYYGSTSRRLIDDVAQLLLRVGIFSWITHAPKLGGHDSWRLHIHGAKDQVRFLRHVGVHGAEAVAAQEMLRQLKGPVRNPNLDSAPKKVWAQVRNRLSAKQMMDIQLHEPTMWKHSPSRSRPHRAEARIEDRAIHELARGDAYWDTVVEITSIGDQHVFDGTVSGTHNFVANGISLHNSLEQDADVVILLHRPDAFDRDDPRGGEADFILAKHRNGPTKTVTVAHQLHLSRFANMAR
The assay can be described thus: DnaB intein splicing inhibitors, dose response, biochemical, cell-free fluorescence (AID 449749). It is filed as functional.

Assay [11] has as its target T6, Corticotropin-releasing factor receptor 2/Corticotropin-releasing factor-binding protein (Homo sapiens, UniProt P24387+Q13324).
T6 sequence (Q13324 whole entry): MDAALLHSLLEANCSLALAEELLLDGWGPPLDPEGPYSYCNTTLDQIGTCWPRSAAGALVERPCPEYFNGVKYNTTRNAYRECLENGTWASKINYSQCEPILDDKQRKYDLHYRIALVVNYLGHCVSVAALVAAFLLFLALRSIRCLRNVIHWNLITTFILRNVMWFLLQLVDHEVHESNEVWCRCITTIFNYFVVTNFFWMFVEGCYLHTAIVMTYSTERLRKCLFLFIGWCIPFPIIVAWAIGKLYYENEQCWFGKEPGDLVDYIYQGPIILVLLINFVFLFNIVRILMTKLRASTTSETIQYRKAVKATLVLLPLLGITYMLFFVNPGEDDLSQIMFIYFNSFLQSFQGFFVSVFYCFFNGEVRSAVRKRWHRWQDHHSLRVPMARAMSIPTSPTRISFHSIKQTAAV
T6 sequence (P24387 whole entry): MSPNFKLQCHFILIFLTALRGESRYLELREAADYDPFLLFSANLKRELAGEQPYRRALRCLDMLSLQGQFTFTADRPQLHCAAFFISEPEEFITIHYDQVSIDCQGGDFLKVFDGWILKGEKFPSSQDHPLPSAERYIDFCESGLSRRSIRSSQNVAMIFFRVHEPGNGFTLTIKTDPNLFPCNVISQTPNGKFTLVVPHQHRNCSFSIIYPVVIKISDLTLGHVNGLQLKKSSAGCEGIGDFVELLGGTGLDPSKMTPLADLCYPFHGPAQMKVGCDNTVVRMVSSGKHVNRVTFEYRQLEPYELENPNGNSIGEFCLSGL
The assay can be described thus: activators of CRF receptor 2 with binding protein – uHTS hits, confirmation (AID 602473). To be noted: read-out: EC50_Mean. It is filed as functional.

Cytochrome P450 2C19, sequence (P33261 whole entry): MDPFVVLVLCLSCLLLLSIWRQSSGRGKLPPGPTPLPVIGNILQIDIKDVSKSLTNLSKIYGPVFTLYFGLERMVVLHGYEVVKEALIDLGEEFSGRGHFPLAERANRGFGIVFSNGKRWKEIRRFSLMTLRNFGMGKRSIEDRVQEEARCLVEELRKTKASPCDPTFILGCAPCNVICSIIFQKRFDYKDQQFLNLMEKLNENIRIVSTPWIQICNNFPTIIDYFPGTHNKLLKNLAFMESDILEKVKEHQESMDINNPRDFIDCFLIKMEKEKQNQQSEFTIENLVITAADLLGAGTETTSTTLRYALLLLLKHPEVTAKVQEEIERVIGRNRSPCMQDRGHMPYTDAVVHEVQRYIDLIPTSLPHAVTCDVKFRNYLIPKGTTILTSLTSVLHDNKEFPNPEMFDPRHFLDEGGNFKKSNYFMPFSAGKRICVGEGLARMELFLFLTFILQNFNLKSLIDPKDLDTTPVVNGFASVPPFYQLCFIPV
Paired box protein Pax-8, sequence (Q06710 whole entry): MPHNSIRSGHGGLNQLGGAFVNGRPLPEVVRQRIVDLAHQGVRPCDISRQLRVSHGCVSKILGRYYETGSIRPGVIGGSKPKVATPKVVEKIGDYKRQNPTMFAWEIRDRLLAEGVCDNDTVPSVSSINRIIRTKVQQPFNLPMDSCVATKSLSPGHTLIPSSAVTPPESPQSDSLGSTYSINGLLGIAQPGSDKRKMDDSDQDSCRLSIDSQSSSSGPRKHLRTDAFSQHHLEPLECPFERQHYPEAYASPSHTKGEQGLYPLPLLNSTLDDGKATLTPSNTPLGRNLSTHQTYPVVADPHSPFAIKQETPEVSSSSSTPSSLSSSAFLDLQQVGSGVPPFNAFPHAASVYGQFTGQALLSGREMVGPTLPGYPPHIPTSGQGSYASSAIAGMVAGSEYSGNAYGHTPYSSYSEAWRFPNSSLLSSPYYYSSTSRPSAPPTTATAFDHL

On to `CC(=O)NC1(c2cccc(F)c2)CCN(CC(=O)NC2CCCCC2)CC1`, for which the EC50 in [1] and in assay [2] was > 20 µM (not active) each time. Further, the AC50 at Cytochrome P450 2C19 is 3.55 µM (inconclusive).

Consider `O=C(NC1CCCCCC1)c1c(F)c(F)c(F)c(F)c1F`, for which the half-inhibitory concentration (IC50) in [3] is given as > 100 µM (not active).

For `COc1cc(NC(=O)C2CCCCN2)ccc1OCC(C)C` (centres undefined), the EC50 in [1] and in assay [2] was > 20 µM (not active) throughout.

As for `O=C(OCN1C(=O)c2ccccc2C1=O)c1cccs1`, in [3], the IC50 is reported as > 100 µM (not active).

Turning to `O=C(Nc1ccccc1)N1C[C@@H]2N[C@H](C1)[C@@H]2c1ccc(/C=C/c2ccccc2)cc1`, the AC50 is 1.85 µM (active) in assay [4], 22.6 µM (active) on Paired box protein Pax-8, 33.5 µM (active) in assay [5] and 7.17 µM (active) in assay [6].

As to `NS(=O)(=O)c1cccc(NC(=O)c2ccc3[nH]cnc3c2)c1`, the AC50 on Caspase-6 is 17.3 µM (active). Also, the IC50 in assay [7] is 7.41 µM (active).

Consider `CN(C)c1ccc(/C=C(/C(=O)c2ccc(Cl)cc2Cl)n2cncn2)cc1`, for which, in [8], the EC50 is > 100 µM (active).

With `O=C(Nc1cc(N2CCOCC2)ncn1)c1ccccc1`, the IC50 at Protein Wnt-3a was > 21.8 µM (inactive).

As for `O=[N+]([O-])c1ccc(-c2ccc(/C=N/O)o2)cc1`, the IC50 in assay [9] was > 100 µM (active).

With `O=C(NC1=NCCS1)c1ccc2c(c1)C(=O)N(Cc1ccco1)C2=O`, in assay [3], the IC50 was > 100 µM (not active).

For `O=C(COC(=O)C1COc2ccccc2O1)NC(=O)Nc1ccc2c(c1)OCCO2` (centres undefined), in assay [9], the IC50 is > 100 µM (active).

Regarding `O=C([C-](C1=[N+](Cc2ccc(Cl)nc2)CCN1Cc1ccc(Cl)nc1)[N+](=O)[O-])C(Cl)Cl`, the EC50 at Protein RecA is 3.48 µM (active); in assay [11], > 53 µM (inactive). The AC50 in [10] is 2.03 µM (active); at Caspase-6, 8.77 µM (active).

In the case of `Nc1ccc(C(=O)Nc2ccc3c(O)cc(S(=O)(=O)O)cc3c2)cc1`, on Caspase-6, the AC50 is 8.79 µM (active). In addition, the IC50 in assay [7] was 4.61 µM (active).

By AC50 is commonly meant the midpoint of the concentration-response curve, whichever way the signal moves. Broadly, the IC50 is the point on the concentration scale where inhibition reaches its midpoint.

The record behind these values is ChEMBL document CHEMBL1201862, “PubChem BioAssay data set” (2004).
